Holding throughout (assay): Enzymatic activity of PI3K isoforms, TR-FRET assay (PIP3 formation)
Holding throughout (type): biochemical

For test [1], the target named is PI3Kγ (Homo sapiens (Human), UniProt P48736). As to the method: (§1) Enzymatic activity of the class I PI3K isoforms was measured using a time-resolved fluorescence resonance energy transfer (TR-FRET) assay that monitors formation of the product 3,4,5-inositol triphosphate molecule (PIP3), as it competes with fluorescently labeled PIP3 for binding to the GRP-1 pleckstrin homology domain protein. An increase in […] product results in a decrease in TR-FRET signal as the labeled fluorophore is displaced from the GRP-1 protein binding site.
Class I PI3K isoforms were expressed and purified as heterodimeric recombinant proteins. All assay reagents and buffers for the TR-FRET assay were purchased from Millipore.
IC50 are reported in units of nM.

Test [2] has as its target PI3Kα (Homo sapiens (Human), UniProt P42336). The following applies: bound given in uM. As to the method: as §1
(§2) Class I PI3K isoforms were expressed and purified as heterodimeric recombinant proteins. All assay reagents and buffers for the TR-FRET assay were purchased from Millipore. […] After an assay reaction time of 30 minutes at 25° C., reactions were terminated with a final concentration of 10 mM EDTA, 10 nM labeled-PIP3, and 35 nM Europium labeled GRP-1 detector protein before reading TR-FRET on an Envision plate reader (Ex: 340 nm; Em: 615/665 nm; 100 μs delay and 500 μs read window).
(§3) IC50 are reported in units of nM. These assays generally produced results within 3-fold of the reported mean.

In test [3] the target is PI3Kδ (Homo sapiens (Human), UniProt O00329). Conditions: bound given in nM. As to the method: as §1, §2, §3

As a reminder, the IC50 is the concentration that inhibits the measured activity by half. A higher IC50 goes with weaker potency.

Chain of PI3Kγ (P48736 whole entry, the tested form may be a part, canonical isoform): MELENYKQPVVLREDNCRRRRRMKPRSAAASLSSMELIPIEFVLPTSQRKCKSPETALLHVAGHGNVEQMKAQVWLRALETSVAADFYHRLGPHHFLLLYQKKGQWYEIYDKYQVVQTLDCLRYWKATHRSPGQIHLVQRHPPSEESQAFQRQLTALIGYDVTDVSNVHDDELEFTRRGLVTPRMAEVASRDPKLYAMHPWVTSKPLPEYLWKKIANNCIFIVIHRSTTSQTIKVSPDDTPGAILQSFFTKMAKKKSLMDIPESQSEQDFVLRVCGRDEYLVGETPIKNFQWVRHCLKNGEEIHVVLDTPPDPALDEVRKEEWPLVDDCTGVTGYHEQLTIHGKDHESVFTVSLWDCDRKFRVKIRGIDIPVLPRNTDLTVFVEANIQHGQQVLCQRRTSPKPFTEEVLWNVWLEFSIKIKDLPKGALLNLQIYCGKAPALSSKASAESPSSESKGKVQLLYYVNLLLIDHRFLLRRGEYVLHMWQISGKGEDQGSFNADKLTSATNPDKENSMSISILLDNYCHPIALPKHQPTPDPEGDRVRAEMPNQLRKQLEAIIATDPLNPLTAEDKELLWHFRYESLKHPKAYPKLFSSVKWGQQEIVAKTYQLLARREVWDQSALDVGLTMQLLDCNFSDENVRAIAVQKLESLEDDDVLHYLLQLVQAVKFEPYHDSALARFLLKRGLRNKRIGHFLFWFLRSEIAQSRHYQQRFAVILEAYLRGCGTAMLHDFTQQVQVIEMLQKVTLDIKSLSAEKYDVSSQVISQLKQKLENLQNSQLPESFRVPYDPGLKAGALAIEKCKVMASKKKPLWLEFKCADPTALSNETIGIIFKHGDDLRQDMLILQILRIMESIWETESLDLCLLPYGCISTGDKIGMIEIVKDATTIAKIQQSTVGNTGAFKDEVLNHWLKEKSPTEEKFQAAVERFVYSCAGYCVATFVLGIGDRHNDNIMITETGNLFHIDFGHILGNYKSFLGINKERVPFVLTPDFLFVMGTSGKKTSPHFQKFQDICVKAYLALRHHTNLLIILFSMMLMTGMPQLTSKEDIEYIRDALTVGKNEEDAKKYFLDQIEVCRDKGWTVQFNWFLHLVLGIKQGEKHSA
Chain of PI3Kγ (Q8WYR1 whole entry partner, the tested form may be a part, canonical isoform): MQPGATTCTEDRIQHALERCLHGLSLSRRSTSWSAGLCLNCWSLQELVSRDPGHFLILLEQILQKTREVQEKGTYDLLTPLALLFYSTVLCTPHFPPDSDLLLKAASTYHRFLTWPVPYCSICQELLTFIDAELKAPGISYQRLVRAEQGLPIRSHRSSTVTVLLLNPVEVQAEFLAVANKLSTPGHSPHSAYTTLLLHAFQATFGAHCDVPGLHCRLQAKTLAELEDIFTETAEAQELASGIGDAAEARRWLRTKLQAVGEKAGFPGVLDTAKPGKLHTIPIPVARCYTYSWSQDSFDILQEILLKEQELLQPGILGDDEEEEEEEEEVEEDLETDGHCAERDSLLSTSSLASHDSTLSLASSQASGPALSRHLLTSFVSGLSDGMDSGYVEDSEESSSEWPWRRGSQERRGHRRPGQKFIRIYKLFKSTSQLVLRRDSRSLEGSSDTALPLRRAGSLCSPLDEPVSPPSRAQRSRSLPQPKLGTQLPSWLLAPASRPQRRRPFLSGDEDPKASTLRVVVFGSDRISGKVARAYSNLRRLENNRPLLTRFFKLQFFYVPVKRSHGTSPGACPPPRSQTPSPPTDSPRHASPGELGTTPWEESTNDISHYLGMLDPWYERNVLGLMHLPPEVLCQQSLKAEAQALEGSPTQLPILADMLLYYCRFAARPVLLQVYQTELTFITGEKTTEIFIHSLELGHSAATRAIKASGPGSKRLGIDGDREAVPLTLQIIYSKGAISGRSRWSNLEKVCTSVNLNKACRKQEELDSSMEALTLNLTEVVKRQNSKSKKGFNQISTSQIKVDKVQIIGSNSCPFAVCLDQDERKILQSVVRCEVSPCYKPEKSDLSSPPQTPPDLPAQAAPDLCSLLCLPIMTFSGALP
Chain of PI3Kδ (O00329 whole entry): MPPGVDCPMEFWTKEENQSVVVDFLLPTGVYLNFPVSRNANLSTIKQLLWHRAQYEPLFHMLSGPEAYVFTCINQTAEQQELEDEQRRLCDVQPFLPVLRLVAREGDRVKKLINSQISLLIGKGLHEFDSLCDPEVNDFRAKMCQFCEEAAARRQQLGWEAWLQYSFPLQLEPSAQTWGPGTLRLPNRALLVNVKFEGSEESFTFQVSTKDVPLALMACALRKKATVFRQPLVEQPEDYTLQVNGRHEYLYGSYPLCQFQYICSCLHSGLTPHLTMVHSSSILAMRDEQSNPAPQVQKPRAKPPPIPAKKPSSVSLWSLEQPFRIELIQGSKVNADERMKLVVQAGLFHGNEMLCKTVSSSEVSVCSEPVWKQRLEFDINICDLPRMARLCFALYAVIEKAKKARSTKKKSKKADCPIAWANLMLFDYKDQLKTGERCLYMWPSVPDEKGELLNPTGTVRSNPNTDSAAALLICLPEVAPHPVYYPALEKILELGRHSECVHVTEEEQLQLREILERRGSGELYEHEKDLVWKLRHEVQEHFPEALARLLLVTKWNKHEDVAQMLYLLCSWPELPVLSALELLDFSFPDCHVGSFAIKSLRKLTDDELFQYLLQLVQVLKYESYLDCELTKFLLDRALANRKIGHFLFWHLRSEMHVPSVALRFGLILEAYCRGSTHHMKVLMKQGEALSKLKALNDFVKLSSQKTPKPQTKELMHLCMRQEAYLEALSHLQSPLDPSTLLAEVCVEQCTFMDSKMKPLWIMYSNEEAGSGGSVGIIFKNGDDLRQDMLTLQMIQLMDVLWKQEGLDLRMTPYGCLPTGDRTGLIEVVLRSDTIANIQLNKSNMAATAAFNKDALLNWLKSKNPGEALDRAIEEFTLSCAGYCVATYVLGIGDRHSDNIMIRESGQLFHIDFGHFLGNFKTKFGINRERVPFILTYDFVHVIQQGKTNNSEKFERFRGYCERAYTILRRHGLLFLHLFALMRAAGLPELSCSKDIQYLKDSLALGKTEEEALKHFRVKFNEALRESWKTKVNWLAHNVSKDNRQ
Chain of PI3Kδ (P27986 whole entry partner): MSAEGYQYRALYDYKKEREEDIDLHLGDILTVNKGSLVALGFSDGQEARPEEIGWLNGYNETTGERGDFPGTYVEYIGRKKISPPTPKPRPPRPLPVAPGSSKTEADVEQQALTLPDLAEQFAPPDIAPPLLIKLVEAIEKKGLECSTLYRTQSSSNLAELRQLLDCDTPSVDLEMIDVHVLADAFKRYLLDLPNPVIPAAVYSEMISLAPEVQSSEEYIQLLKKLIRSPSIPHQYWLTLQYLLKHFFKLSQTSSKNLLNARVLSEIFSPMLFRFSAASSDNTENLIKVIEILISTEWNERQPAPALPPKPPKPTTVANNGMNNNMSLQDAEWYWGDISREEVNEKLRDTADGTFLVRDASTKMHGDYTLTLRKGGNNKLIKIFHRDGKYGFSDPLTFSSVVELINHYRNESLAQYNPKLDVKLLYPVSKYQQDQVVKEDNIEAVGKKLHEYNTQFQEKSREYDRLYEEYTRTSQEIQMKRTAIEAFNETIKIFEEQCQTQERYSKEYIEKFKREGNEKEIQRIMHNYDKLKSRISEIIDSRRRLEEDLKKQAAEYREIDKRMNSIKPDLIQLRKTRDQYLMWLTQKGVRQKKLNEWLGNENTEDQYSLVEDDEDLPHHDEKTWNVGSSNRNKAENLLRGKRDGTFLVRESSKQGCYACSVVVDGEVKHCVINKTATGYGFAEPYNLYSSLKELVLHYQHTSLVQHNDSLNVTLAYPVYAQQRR
Chain of PI3Kα (P42336 whole entry, canonical isoform): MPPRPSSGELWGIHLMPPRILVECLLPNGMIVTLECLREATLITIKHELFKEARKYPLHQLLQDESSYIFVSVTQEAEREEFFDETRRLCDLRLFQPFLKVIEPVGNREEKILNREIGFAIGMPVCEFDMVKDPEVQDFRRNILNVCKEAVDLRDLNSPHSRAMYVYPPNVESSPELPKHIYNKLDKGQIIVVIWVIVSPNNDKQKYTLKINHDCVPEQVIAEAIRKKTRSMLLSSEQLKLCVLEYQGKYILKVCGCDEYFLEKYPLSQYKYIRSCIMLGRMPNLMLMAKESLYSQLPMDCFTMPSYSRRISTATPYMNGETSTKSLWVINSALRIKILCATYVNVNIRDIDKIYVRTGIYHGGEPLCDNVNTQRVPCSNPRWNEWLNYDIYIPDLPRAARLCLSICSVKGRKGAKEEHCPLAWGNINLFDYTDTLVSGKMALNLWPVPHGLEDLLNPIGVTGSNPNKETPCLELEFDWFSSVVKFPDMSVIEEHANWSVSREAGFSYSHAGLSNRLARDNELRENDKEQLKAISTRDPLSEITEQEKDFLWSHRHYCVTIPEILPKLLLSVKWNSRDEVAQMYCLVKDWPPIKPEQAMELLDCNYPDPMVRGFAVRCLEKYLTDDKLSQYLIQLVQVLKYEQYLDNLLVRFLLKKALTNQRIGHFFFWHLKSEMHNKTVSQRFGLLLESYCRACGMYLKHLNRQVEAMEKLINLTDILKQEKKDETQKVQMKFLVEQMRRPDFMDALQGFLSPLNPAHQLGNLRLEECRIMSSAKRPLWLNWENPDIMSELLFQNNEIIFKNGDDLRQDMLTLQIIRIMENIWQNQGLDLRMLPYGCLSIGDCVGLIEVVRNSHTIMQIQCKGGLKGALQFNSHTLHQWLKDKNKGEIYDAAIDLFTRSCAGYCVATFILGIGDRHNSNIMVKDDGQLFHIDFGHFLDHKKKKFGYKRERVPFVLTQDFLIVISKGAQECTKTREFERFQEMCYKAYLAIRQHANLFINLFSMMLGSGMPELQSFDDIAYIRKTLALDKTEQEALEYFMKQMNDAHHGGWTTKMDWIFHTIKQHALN
Chain of PI3Kα (P27986 whole entry partner, canonical isoform): as the sequence (P27986 whole entry partner) above

Turning to `C[C@H](Nc1ncnc(N)c1C#Cc1cnccn1)c1nc2cccc(Cl)c2c(=O)n1-c1cccnc1` [Compound 118a, (S)-2-(1-((6-amino-5-(pyrazin-2-ylethynyl)pyrimidin-4-yl)amino)ethyl)-5-chloro-3-(pyridin-3-yl)quinazolin-4(3H)-one], the IC50 in test [1] (bound given in uM) was over 1 µM; in test [2], over 1 µM; in test [3] it was under 100 nM.
Take `C[C@H](Nc1ncnc(N)c1C#Cc1ccc(F)cn1)c1nc2c(F)ccc(F)c2c(=O)n1-c1ccccc1` [Compound 4a, (S)-2-(1-(6-amino-5-((5-fluoropyridin-2-yl)ethynyl)pyrimidin-4-ylamino)ethyl)-5,8-difluoro-3-phenylquinazolin-4(3H)-one]: the results for the IC50 in test [1] (bound given in uM), in test [2] and in test [3] were over 1 µM, over 1 µM and under 100 nM, respectively.
In the case of `C[C@H](Nc1ncnc(N)c1C#Cc1ccccc1)c1nc2cccc(F)c2c(=O)n1-c1cccnc1` [Compound 116a, (S)-2-(1-((6-amino-5-(phenylethynyl)pyrimidin-4-yl)amino)ethyl)-5-fluoro-3-(pyridin-3-yl)quinazolin-4(3H)-one], the IC50 in test [1] (bound given in uM) was over 1 µM; in test [3], under 100 nM.
`C[C@H](Nc1ncnc(N)c1C#Cc1ccc(F)cn1)c1nc2cccc(Cl)c2c(=O)n1N1CCOCC1` [Compound 121a, (S)-2-(1-((6-amino-5-((5-fluoropyridin-2-yl)ethynyl)pyrimidin-4-yl)amino)ethyl)-5-chloro-3-morpholinoquinazolin-4(3H)-one]: the IC50 in test [1] (bound given in uM) is over 1 µM; in test [2] it was over 1 µM; in test [3], under 100 nM.
With `Cc1cccc2nc([C@H](C)Nc3ncnc(N)c3C#Cc3cnccn3)n(-c3cccnc3)c(=O)c12` [Compound 119a, (S)-2-(1-((6-amino-5-(pyrazin-2-ylethynyl)pyrimidin-4-yl)amino)ethyl)-5-methyl-3-(pyridin-3-yl)quinazolin-4(3H)-one], the IC50 was over 1 µM in test [1] (bound given in uM), over 1 µM in test [2] and under 100 nM in test [3].
For the compound `C[C@H](Nc1ncnc(N)c1C#Cc1cnccn1)c1nc2cccc(F)c2c(=O)n1-c1ccccc1` [Compound 86a, (S)-2-(1-((6-amino-5-(pyrazin-2-ylethynyl)pyrimidin-4-yl)amino)ethyl)-5-fluoro-3-phenylquinazolin-4(3H)-one], the half-inhibitory concentration (IC50) is over 1 µM in test [1] (bound given in uM), over 1 µM in test [2] and under 100 nM in test [3].
In the case of `Cc1ccc(F)c2nc([C@H](C)Nc3ncnc(N)c3C#Cc3cnccn3)n(-c3cccc(C#N)c3)c(=O)c12` [Compound 73a, (S)-3-(2-(1-((6-amino-5-(pyrazin-2-ylethynyl)pyrimidin-4-yl)amino)ethyl)-8-fluoro-5-methyl-4-oxoquinazolin-3(4H)-yl)benzonitrile], the results for the half-maximal inhibitory concentration (IC50) in test [1] (bound given in uM), in test [2] and in test [3] were over 1 µM, over 1 µM and under 100 nM, respectively.
With `COC(=O)c1ccnc(C#Cc2c(N)ncnc2N[C@@H](C)c2nc3cccc(Cl)c3c(=O)n2-c2ccccc2)c1` [Compound 158a, (S)-methyl 2-((4-amino-6-((1-(5-chloro-4-oxo-3-phenyl-3,4-dihydroquinazolin-2-yl)ethyl)amino)pyrimidin-5-yl)ethynyl)isonicotinate], the values for the IC50 in test [1] (bound given in uM), in test [2] and in test [3] were over 1 µM, over 1 µM and under 100 nM, respectively.
In the case of `C[C@H](Nc1ncnc(N)c1C#Cc1ncccn1)c1nc2cccc(Cl)c2c(=O)n1-c1ccccc1` [Compound 102a, (S)-2-(1-((6-amino-5-(pyrimidin-2-ylethynyl)pyrimidin-4-yl)amino)ethyl)-5-chloro-3-phenylquinazolin-4(3H)-one], the IC50 is over 1 µM in test [2] and under 100 nM in test [3].
As for `Nc1ncnc(N[C@H](CO)c2nc3cccc(Cl)c3c(=O)n2-c2ccccc2)c1C#Cc1ccc(F)cn1` [139b], the half-inhibitory concentration (IC50) in test [1] (bound given in uM) was over 1 µM; in test [2], over 1 µM; in test [3] it was under 100 nM.
On to `C[C@H](Nc1ncnc(N)c1C#Cc1cnccn1)c1nc2cccc(Cl)c2c(=O)n1-c1cccc(CNS(C)(=O)=O)c1` [Compound 123a, (S)—N-(3-(2-(1-((6-amino-5-(pyrazin-2-ylethynyl)pyrimidin-4-yl)amino)ethyl)-5-chloro-4-oxoquinazolin-3(4H)-yl)benzyl)methanesulfonamide], for which the IC50 in test [2] is over 1 µM; in test [3], under 100 nM.
The matching figures for `COc1ccc(C#Cc2c(N)ncnc2N[C@@H](C)c2nc3c(Cl)ccc(Cl)c3c(=O)n2-c2ccccc2)nc1` [Compound 10a, (S)-2-(1-(6-amino-5-((5-methoxypyridin-2-yl)ethynyl)pyrimidin-4-ylamino)ethyl)-5,8-dichloro-3-phenylquinazolin-4(3H)-one]: over 1 µM and under 100 nM.
The matching figures for `C[C@H](Nc1ncnc(N)c1C#Cc1cccc(C(F)(F)F)n1)c1nc2cccc(Cl)c2c(=O)n1-c1ccccc1` [Compound 151a, (S)-2-(1-((6-amino-5-((6-(trifluoromethyl)pyridin-2-yl)ethynyl)pyrimidin-4-yl)amino)ethyl)-5-chloro-3-phenylquinazolin-4(3H)-one]: over 1 µM and under 100 nM.
For `C[C@H](Nc1ncnc(N)c1C#Cc1ccc(F)cn1)c1nc2c(F)ccc(Cl)c2c(=O)n1-c1ccccc1` [Compound 6a, (S)-2-(1-(6-amino-5-((5-fluoropyridin-2-yl)ethynyl)pyrimidin-4-ylamino)ethyl)-5-chloro-8-fluoro-3-phenylquinazolin-4(3H)-one] the same measures were over 1 µM and under 100 nM.
Take `Cc1cccc2nc([C@H](C)Nc3ncnc(N)c3C#Cc3ccc(F)cn3)n(-c3ccccc3)c(=O)c12` [Compound 54a, (S)-2-(1-((6-amino-5-((5-fluoropyridin-2-yl)ethynyl)pyrimidin-4-yl)amino)ethyl)-5-methyl-3-phenylquinazolin-4(3H)-one]: the IC50 in test [2] is over 1 µM; in test [3] it was under 100 nM.
The matching figures for `C[C@H](Nc1ncnc(N)c1C#Cc1cc(C(F)(F)F)ccn1)c1nc2cccc(Cl)c2c(=O)n1-c1ccccc1` [Compound 148a, (S)-2-(1-((6-amino-5-((4-(trifluoromethyl)pyridin-2-yl)ethynyl)pyrimidin-4-yl)amino)ethyl)-5-chloro-3-phenylquinazolin-4(3H)-one]: over 1 µM and under 100 nM.
Take `C[C@H](Nc1ncnc(N)c1C#Cc1cccnc1)c1nc2cccc(Cl)c2c(=O)n1-c1ccccc1` [Compound 44a, (S)-2-(1-(6-amino-5-(pyridin-3-ylethynyl)pyrimidin-4-ylamino)ethyl)-5-chloro-3-phenylquinazolin-4(3H)-one]: the half-maximal inhibitory concentration (IC50) was under 0.1 µM in test [1] (bound given in nM) and under 100 nM in test [3].
Turning to `C[C@H](Nc1ncnc(N)c1C#Cc1cnccn1)c1nc2cccc(C(F)F)c2c(=O)n1-c1ccccc1` [Compound 76a, (S)-2-(1-((6-amino-5-(pyrazin-2-ylethynyl)pyrimidin-4-yl)amino)ethyl)-5-(difluoromethyl)-3-phenylquinazolin-4(3H)-one], the figures for the IC50 in test [2] and in test [3] were over 1 µM and under 100 nM, respectively.
For the compound `Cc1cccc2nc([C@H](C)Nc3ncnc(N)c3C#Cc3ncccn3)n(-c3ccccc3)c(=O)c12` [Compound 104a, (S)-2-(1-((6-amino-5-(pyrimidin-2-ylethynyl)pyrimidin-4-yl)amino)ethyl)-5-methyl-3-phenylquinazolin-4(3H)-one], the half-inhibitory concentration (IC50) in test [2] was over 1 µM; in test [3], under 100 nM.
On to `C[C@H](Nc1ncnc(N)c1C#Cc1cnc(N)cc1C(F)(F)F)c1nc2cccc(Cl)c2c(=O)n1-c1cc(F)cc(F)c1` [Compound 17a, (S)-2-(1-(6-amino-5-((6-amino-4-(trifluoromethyl)pyridin-3-yl)ethynyl)pyrimidin-4-ylamino)ethyl)-5-chloro-3-(3,5-difluorophenyl)quinazolin-4(3H)-one], for which the IC50 was under 0.1 µM in test [1] (bound given in nM) and under 100 nM in test [3].
On to `CC(=O)c1cccc(C#Cc2c(N)ncnc2N[C@@H](C)c2nc3cccc(Cl)c3c(=O)n2-c2ccccc2)n1` [Compound 153a, (S)-2-(1-((5-((6-acetylpyridin-2-yl)ethynyl)-6-aminopyrimidin-4-yl)amino)ethyl)-5-chloro-3-phenylquinazolin-4(3H)-one], for which the IC50 in test [2] is over 1 µM; in test [3] it was under 100 nM.
`C[C@H](Nc1ncnc(N)c1C#Cc1cnccn1)c1nc2cccc(Cl)c2c(=O)n1-c1cccc(Cl)c1` [Compound 89a, (S)-2-(1-((6-amino-5-(pyrazin-2-ylethynyl)pyrimidin-4-yl)amino)ethyl)-5-chloro-3-(3-chlorophenyl)quinazolin-4(3H)-one]: the values for the IC50 in test [2] and in test [3] were over 1 µM and under 100 nM, respectively.
On to `C[C@H](Nc1nc(N)nc(N)c1C#Cc1ccccc1)c1nc2cccc(Cl)c2c(=O)n1-c1ccccc1` [Compound 25a, 5-chloro-2-(1-((2,6-diamino-5-(phenylethynyl)pyrimidin-4-yl)amino)ethyl)-3-phenylquinazolin-4(3H)-one], for which the IC50 in test [1] (bound given in nM) is under 0.1 µM; in test [3], under 100 nM.

These data come from patent publication US9266878B2, “Phosphatidylinositol 3-kinase inhibitors” (Gilead Calistoga LLC, priority 2012, dated 2016).
